Source: patent US20200017496A1 (priority 2017, published 2020)
Like-named read-outs stand apart in the source and are kept apart here.

What was measured:
Assay in all cases: MIC of compounds alone and combined with antibacterials, broth microdilution (CLSI)
Type in all cases: cell-based
[1] = tested on: Morganella morganii (MMO) isolates; settings: for MIC: Morganella morganii
Summary of the method: (§1)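 Inoculum 5·10^5 CFU/mL (final), log phase, ca-MHB; 16-20 h, 35° C, ambient air. MIC = lowest conc. with no visible growth; ATB MIC read at each compound level.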

[2] = tested on: Citrobacter koseri (CKR) isolates; settings: for MIC: Citrobacter koseri, read-out: MIC
Summary of the method: as §1

[3] = tested on: Klebsiella oxytoca (KOX) isolates; settings: for MIC: Klebsiella oxytoca
Summary of the method: as §1

Question: For `C=CC1=C(C(=O)O)N2C(=O)[C@@H](NC(=O)/C(=N\OCC(=O)O)c3csc(N)n3)[C@H]2SC1` [FIX, Cefixime], which “MIC ATB in combination” value ([1]; MMO UFR242, AF1 @ 4 μg/mL) is on record?
Answer: 4 µg/mL

Question: And the “MIC ATB in combination” value ([1]; MMO UFR242, AF1 @ 8 μg/mL)?
Answer: 2 µg/mL

Question: And the “MIC ATB in combination” value ([1]; MMO UFR243, AF1 @ 4 μg/mL)?
Answer: 0.5 µg/mL

Question: And the “MIC ATB in combination” value ([1]; MMO UFR243, AF1 @ 8 μg/mL)?
Answer: <=0.25 μg/mL

Question: What about the “MIC ATB in combination” value ([1]; MMO UFR244, AF1 @ 4 μg/mL) of the same compound?
Answer: <=0.25 μg/mL

Question: And the “MIC ATB in combination” value ([1]; MMO UFR244, AF1 @ 8 μg/mL)?
Answer: <=0.25 μg/mL

Question: And the “MIC ATB in combination” value ([1]; MMO UFR245, AF1 @ 4 μg/mL)?
Answer: 2 µg/mL

Question: And the “MIC ATB in combination” value ([1]; MMO UFR245, AF1 @ 8 μg/mL)?
Answer: <=0.25 μg/mL

Question: And the “MIC ATB in combination” value ([1]; MMO UFR246, AF1 @ 4 μg/mL)?
Answer: 2 µg/mL

Question: What about the “MIC ATB in combination” value ([1]; MMO UFR246, AF1 @ 8 μg/mL) of the same compound?
Answer: 1 µg/mL

Question: And the “MIC ATB in combination” value ([1]; MMO UFR247, AF1 @ 4 μg/mL)?
Answer: 0.5 µg/mL

Question: And the “MIC ATB in combination” value ([1]; MMO UFR247, AF1 @ 8 μg/mL)?
Answer: 0.25 µg/mL

Question: What about the MIC ([1]; strain MMO 200321 (TEM-1, CTX-M-15, OXA-1), ATB alone) of the same compound?
Answer: > 128 µg/mL

Question: And the MIC ([1]; strain MMO 200321 (TEM-1, CTX-M-15, OXA-1), CLA @ 4 μg/ml+ ATB, read-out: MIC)?
Answer: 32 µg/mL

Question: And the MIC ([1]; strain MMO UFR144 (TEM-1, CTX-M-15), ATB alone)?
Answer: > 128 µg/mL

Question: What about the MIC ([1]; strain MMO UFR144 (TEM-1, CTX-M-15), CLA @ 4 μg/ml+ ATB, read-out: MIC) of the same compound?
Answer: 32 µg/mL

Question: And the MIC ([1]; strain MMO UFR240 (CTX-M-9), ATB alone, read-out: MIC)?
Answer: 1 µg/mL

Question: What about the MIC ([1]; strain MMO UFR240 (CTX-M-9), CLA @ 4 μg/ml+ ATB, read-out: MIC) of the same compound?
Answer: 8 µg/mL

Question: And the MIC ([1]; strain MMO UFR241 (TEM-1, CTX-M-15), ATB alone)?
Answer: > 128 µg/mL

Question: What about the MIC ([1]; strain MMO UFR241 (TEM-1, CTX-M-15), CLA @ 4 μg/ml+ ATB, read-out: MIC) of the same compound?
Answer: 32 µg/mL

Question: And the MIC ([1]; strain MMO UFR242 (TEM-52), ATB alone, read-out: MIC)?
Answer: 1020 µg/mL

Question: And the MIC ([1]; strain MMO UFR242 (TEM-52), CLA @ 4 μg/ml+ ATB, read-out: MIC)?
Answer: 64 µg/mL

Question: And the MIC ([1]; strain MMO UFR243 (DHA-1), ATB alone, read-out: MIC)?
Answer: 8 µg/mL

Question: What about the MIC ([1]; strain MMO UFR243 (DHA-1), CLA @ 4 μg/ml+ ATB, read-out: MIC) of the same compound?
Answer: 32 µg/mL

Question: And the MIC ([1]; strain MMO UFR244 (DHA-1), ATB alone, read-out: MIC)?
Answer: 4 µg/mL

Question: And the MIC ([1]; strain MMO UFR244 (DHA-1), CLA @ 4 μg/ml+ ATB, read-out: MIC)?
Answer: 8 µg/mL

Question: And the MIC ([1]; strain MMO UFR245 (DHA-1), ATB alone, read-out: MIC)?
Answer: 32 µg/mL

Question: And the MIC ([1]; strain MMO UFR245 (DHA-1), CLA @ 4 μg/ml+ ATB, read-out: MIC)?
Answer: 64 µg/mL

Question: And the MIC ([1]; strain MMO UFR246 (DHA-1), ATB alone, read-out: MIC)?
Answer: 32 µg/mL

Question: What about the MIC ([1]; strain MMO UFR246 (DHA-1), CLA @ 4 μg/ml+ ATB, read-out: MIC) of the same compound?
Answer: 64 µg/mL

Question: What about the MIC ([1]; strain MMO UFR247 (DHA-1), ATB alone, read-out: MIC) of the same compound?
Answer: 16 µg/mL

Question: What about the MIC ([1]; strain MMO UFR247 (DHA-1), CLA @ 4 μg/ml+ ATB, read-out: MIC) of the same compound?
Answer: 32 µg/mL

Question: What about the “MIC ATB in combination” value ([2]; CKO ROU, AF1 @ 4 μg/mL) of the same compound?
Answer: <=0.25 μg/mL

Question: And the “MIC ATB in combination” value ([2]; CKO ROU, AF1 @ 8 μg/mL)?
Answer: <=0.25 μg/mL

Question: What about the “MIC ATB in combination” value ([2]; CKO UFR149, AF1 @ 4 μg/mL) of the same compound?
Answer: 0.5 µg/mL

Question: What about the “MIC ATB in combination” value ([2]; CKO UFR149, AF1 @ 8 μg/mL) of the same compound?
Answer: <=0.25 μg/mL

Question: What about the “MIC ATB in combination” value ([2]; CKO UFR150, AF1 @ 4 μg/mL) of the same compound?
Answer: 2 µg/mL

Question: And the “MIC ATB in combination” value ([2]; CKO UFR150, AF1 @ 8 μg/mL)?
Answer: 1 µg/mL

Question: And the MIC ([2]; strain CKO ROU (TEM-1, SHV-12, CTX-M-15, OXA-1, OXA-48), ATB alone)?
Answer: 1 µg/mL

Question: And the MIC ([2]; strain CKO ROU (TEM-1, SHV-12, CTX-M-15, OXA-1, OXA-48), CLA @ 4 μg/ml+ ATB)?
Answer: 2 µg/mL

Question: And the MIC ([2]; strain CKO UFR149 (OXA-48), ATB alone)?
Answer: 0.5 µg/mL

Question: What about the MIC ([2]; strain CKO UFR149 (OXA-48), CLA @ 4 μg/ml+ ATB) of the same compound?
Answer: 1 µg/mL

Question: What about the MIC ([2]; strain CKO UFR150 (TEM-1, OXA-48), ATB alone) of the same compound?
Answer: 2 µg/mL

Question: What about the MIC ([2]; strain CKO UFR150 (TEM-1, OXA-48), CLA @ 4 μg/ml+ ATB) of the same compound?
Answer: 2 µg/mL

Question: And the “MIC ATB in combination” value ([3]; KOX UFR21, AF1 @ 4 μg/mL)?
Answer: 2 µg/mL

Question: And the “MIC ATB in combination” value ([3]; KOX UFR21, AF1 @ 8 μg/mL)?
Answer: 1 µg/mL

Question: And the “MIC ATB in combination” value ([3]; KOX UFR173, AF1 @ 4 μg/mL)?
Answer: <=0.25 μg/mL

Question: What about the “MIC ATB in combination” value ([3]; KOX UFR173, AF1 @ 8 μg/mL) of the same compound?
Answer: <=0.25 μg/mL

Question: And the “MIC ATB in combination” value ([3]; KOX UFR223, AF1 @ 4 μg/mL)?
Answer: <=0.25 μg/mL

Question: What about the “MIC ATB in combination” value ([3]; KOX UFR223, AF1 @ 8 μg/mL) of the same compound?
Answer: <=0.25 μg/mL

Question: And the “MIC ATB in combination” value ([3]; KOX UFR224, AF1 @ 4 μg/mL)?
Answer: <=0.25 μg/mL

Question: And the “MIC ATB in combination” value ([3]; KOX UFR224, AF1 @ 8 μg/mL)?
Answer: <=0.25 μg/mL

Question: What about the MIC ([3]; strain KOX UFR21 (TEM-1, CTX-M-15, OXA-48), ATB alone) of the same compound?
Answer: > 128 µg/mL

Question: What about the MIC ([3]; strain KOX UFR21 (TEM-1, CTX-M-15, OXA-48), CLA @ 4 μg/ml+ ATB) of the same compound?
Answer: > 128 µg/mL

Question: What about the MIC ([3]; strain KOX UFR173 (OXY2-2), ATB alone, read-out: MIC) of the same compound?
Answer: 16 µg/mL

Question: What about the MIC ([3]; strain KOX UFR173 (OXY2-2), CLA @ 4 μg/ml+ ATB, read-out: MIC) of the same compound?
Answer: 4 µg/mL

Question: What about the MIC ([3]; strain KOX UFR223 (SHV-11, OXA-48), ATB alone, read-out: MIC) of the same compound?
Answer: ≤ 0.125 µg/mL

Question: What about the MIC ([3]; strain KOX UFR223 (SHV-11, OXA-48), CLA @ 4 μg/ml+ ATB, read-out: MIC) of the same compound?
Answer: ≤ 0.25 µg/mL

Question: And the MIC ([3]; strain KOX UFR224 (CTX-M-15, OXA-48), ATB alone)?
Answer: > 128 µg/mL

Question: What about the MIC ([3]; strain KOX UFR224 (CTX-M-15, OXA-48), CLA @ 4 μg/ml+ ATB, read-out: MIC) of the same compound?
Answer: 8 µg/mL
